Experimental data from BindingDB's records for doi:10.1016/j.ejmech.2021.113895 (University of Pisa, 2021).

Assay: Inhibition of recombinant full length human His-tagged PDK1 expressed in Baculovirus expression system in presence of ATP measured by […]

IC50 [nM]	SMILES
245	O=C(CCCNC(=O)c1cccn(Cc2ccc(F)c(F)c2)c1=O)Nc1ccc2c(c1)/C(=C/c1cnc[nH]1)C(=O)N2 [US10351548, Compound DF8]
475	Cc1c(Br)cc(C(=O)N[C@@H](C(=O)Nc2ccc3c(c2)/C(=C/c2cnc[nH]2)C(=O)N3)c2ccccc2)c(=O)n1Cc1ccc(F)c(F)c1
134	Cc1c(Br)cc(C(=O)NCC(=O)Nc2ccc3c(c2)/C(=C/c2cnc[nH]2)C(=O)N3)c(=O)n1Cc1ccc(F)c(F)c1
148	Cc1ccc(C(=O)N[C@@H](C(=O)Nc2ccc3c(c2)/C(=C/c2cnc[nH]2)C(=O)N3)c2ccccc2)c(=O)n1Cc1ccc(F)c(F)c1
5880	O=C(CCCNC(=O)c1cccn(Cc2ccc(F)c(F)c2)c1=O)Nc1ccc2c(c1)C(=Cc1cccs1)C(=O)N2 [US10351548, Compound DF9]

SMILES	IC50 [nM]
O=C(CCNC(=O)c1cccn(Cc2ccc(F)c(F)c2)c1=O)Nc1ccc2c(c1)/C(=C/c1ncc[nH]1)C(=O)N2	455
Cc1ccc(C(=O)NCC(=O)Nc2ccc3c(c2)/C(=C/c2cnc[nH]2)C(=O)N3)c(=O)n1Cc1ccc(F)c(F)c1	103
O=C(CCNC(=O)c1cccn(Cc2ccc(F)c(F)c2)c1=O)Nc1ccc2c(c1)/C(=C/c1cnc[nH]1)C(=O)N2 [US10351548, Compound DD21]	103
O=C(CCNC(=O)c1cccn(Cc2ccc(F)c(F)c2)c1=O)Nc1ccc2c(c1)C(=Cc1cccs1)C(=O)N2	1340
